Laboratory results from BigSolDB 2.1.

C=CC(=O)Nc1cc(Nc2nccc(-c3cn(C)c4ccccc34)n2)c(OC)cc1N(C)CCN(C)C
Conditions	solubility (mole fraction)
in PEG-400, 298.2 K	0.00214
in PEG-400, 303.2 K	0.00307
in PEG-400, 308.2 K	0.00421
in PEG-400, 313.2 K	0.00583
in PEG-400, 318.2 K	0.00733

solubility (mole fraction)
Conditions	in dichloromethane	in ethanol	in ethyl acetate	in isopropyl myristate	in propylene glycol	in transcutol	in water
298.2 K	0.000939	0.000472	0.00129	0.000794	0.000766	0.00144	1.85e-05
303.2 K	0.0014	0.000703	0.00174	0.00122	0.00106	0.0022	2.24e-05
308.2 K	0.00196	0.000989	0.00241	0.00186	0.00143	0.00337	2.72e-05
313.2 K	0.0028	0.00131	0.0031	0.00263	0.00206	0.0046	3.18e-05
318.2 K	0.00366	0.00176	0.00398	0.00344	0.00265	0.00638	3.69e-05
